Experimental data reported in patent US10300074B2, “Use of inhibitor of apoptosis protein (IAP) antagonists in HIV therapy” (Sanford-Burnham Medical Research Institute, priority 2014, dated 2019).

Experiments:
XIAP BIR1/2 = XIAP BIR1/2 (Homo sapiens (Human), UniProt P98170); assay: XIAP BIR1/2 Ki; format: binding; conditions: Table B-1
ML-IAP = ML-IAP (Homo sapiens (Human), UniProt Q96CA5); assay: ML-IAP Ki; format: binding; conditions: Table B-1
XIAP BIR3 = XIAP BIR3 (Homo sapiens (Human), UniProt P98170); assay: XIAP BIR3 Ki; format: binding; conditions: Table B-1
XIAP BIR3, sequence (P98170 241-356): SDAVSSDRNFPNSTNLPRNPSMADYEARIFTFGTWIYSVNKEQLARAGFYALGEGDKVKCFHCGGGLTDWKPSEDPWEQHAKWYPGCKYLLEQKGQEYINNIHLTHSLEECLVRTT

[1] = tested on: latently infected JLat 10.6 cells; conditions: for Reactivation of latent HIV (GFP reporter expression): single agent, 24 hours; for Activation of HIV transcription, combination versus components alone: in combination with Compound 35, 24 hours
[2] = tested on: HEK 293T cells infected with HIV-VSVg; format: cell-based
[3] = tested on: Latently infected Jurkat JLat 10.6 cells; conditions: HDAC inhibitor in combination with Compound 35, 36 hours, normalized against background of HDAC inhibitor alone

ML-IAP, sequence (Q96CA5 whole entry): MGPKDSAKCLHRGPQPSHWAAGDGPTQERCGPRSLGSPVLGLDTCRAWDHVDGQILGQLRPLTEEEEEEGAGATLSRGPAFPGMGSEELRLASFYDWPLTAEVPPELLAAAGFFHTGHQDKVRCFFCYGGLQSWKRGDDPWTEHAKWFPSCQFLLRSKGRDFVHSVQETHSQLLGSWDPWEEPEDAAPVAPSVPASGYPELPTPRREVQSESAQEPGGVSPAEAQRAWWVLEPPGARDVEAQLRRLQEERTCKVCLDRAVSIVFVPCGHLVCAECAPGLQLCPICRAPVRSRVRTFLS
XIAP BIR1/2, sequence (P98170 1-240): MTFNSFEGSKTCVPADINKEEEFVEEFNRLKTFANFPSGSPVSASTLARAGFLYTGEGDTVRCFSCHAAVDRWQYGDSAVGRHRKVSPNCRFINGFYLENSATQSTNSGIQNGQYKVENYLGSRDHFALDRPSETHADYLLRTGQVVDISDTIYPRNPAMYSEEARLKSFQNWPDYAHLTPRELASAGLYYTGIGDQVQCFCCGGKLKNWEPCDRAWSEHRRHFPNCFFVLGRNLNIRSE

| Compound | Ki (XIAP BIR1/2) [µM] | Ki (ML-IAP) [µM] | Ki (XIAP BIR3) [µM] | Reactivation of latent HIV (GFP reporter expression) [1] | Viral gene transcription as measured by luciferase expression [2] | Activation of HIV transcription, combination versus components alone [1] | Group: increase of GFP+ cells [3] |
| --- | --- | --- | --- | --- | --- | --- | --- |
| CN[C@@H](C)C(=O)N[C@H]1CCS[C@H]2CCC(C(=O)N[C@@H]3CCCc4ccccc43)N2C1=O (stereo partly shown) [Compound 24] | > 50 | ≤ 25 | ≤ 25 |  |  |  |  |
| CN[C@@H](C)C(=O)N[C@H]1CCO[C@H]2CC(C)(C)[C@@H](C(=O)N[C@@H]3CCCc4ccccc43)N2C1=O [Compound 26] | ≤ 25 | ≤ 25 | ≤ 25 |  |  |  |  |
| CN[C@@H](C)C(=O)N[C@H]1CCO[C@H]2c3ccccc3C(C(=O)N[C@@H]3CCCc4ccccc43)N2C1=O (stereo partly shown) [Compound 27] | > 50 | ≤ 25 | ≤ 25 |  |  |  |  |
| CN[C@@H](C)C(=O)N[C@H]1CCO[C@H]2CC[C@@H](C(=O)N[C@@H]3CCOc4ccccc43)N2C1=O [Compound 32] | > 50 | ≤ 25 | ≤ 25 |  |  |  |  |
| CN[C@@H](C)C(=O)N[C@H]1CCO[C@H]2CC[C@@H](C(=O)N[C@@H]3CCCc4ccccc43)N2C1=O [Compound 33] | > 50 | ≤ 25 | ≤ 25 |  |  |  |  |
| CN[C@@H](C)C(=O)N[C@H]1CCS[C@H]2CC[C@@H](C(=O)N[C@@H]3CCCc4ccccc43)N2C1=O [Compound 34] | > 50 | ≤ 25 | ≤ 25 |  |  |  |  |
| CN[C@@H](C)C(=O)N[C@H]1CCS[C@H]2CC(C)(C)C(C(=O)N[C@@H]3CCCc4ccccc43)N2C1=O (stereo partly shown) [Compound 35] | ≤ 25 | ≤ 25 | ≤ 25 | caused reactivation of HIV | enhancement of viral gene transcription, as measured by luciferase expression, was proportional to the loss of BIRC2/cIAP1 protein |  |  |
| CN[C@@H](C)C(=O)N[C@H]1CCS[C@H]2CC[C@H](C(=O)N[C@@H]3CCCc4ccccc43)N2C1=O [Compound 36] | > 50 | ≤ 25 | ≤ 25 |  |  |  |  |
| CN[C@@H](C)C(=O)N[C@H]1CCO[C@H]2CC3(CC=CC3)C(C(=O)N[C@@H]3CCCc4ccccc43)N2C1=O (stereo partly shown) [Compound 42] | ≤ 25 | ≤ 25 | ≤ 25 |  |  |  |  |
| CN[C@@H](C)C(=O)N[C@H]1CC(=O)N[C@H]2CC(C)(C)C(C(=O)N[C@@H]3CCCc4ccccc43)N2C1=O (stereo partly shown) [Compound 46] | > 50 | ≤ 25 | ≤ 25 |  |  |  |  |
| CC(=O)NCCCCCCNC(C)=O [HMBA, hexamethylbisacetamide] |  |  |  |  |  | greater effect than treatment with any of the components alone |  |
| Cc1[nH]c2ccccc2c1CCNCc1ccc(/C=C/C(=O)NO)cc1 [Panobinostat, panobinostat] |  |  |  |  |  | greater effect than treatment with any of the components alone |  |
| CC[C@H](NC(=O)[C@H](C)NC)C(=O)N1C[C@@H](O)C[C@H]1Cc1c(-c2[nH]c3cc(F)ccc3c2C[C@@H]2C[C@H](O)CN2C(=O)[C@H](CC)NC(=O)[C@H](C)NC)[nH]c2cc(F)ccc12 [TL32711] |  |  |  | Reactivation of latent HIV in JLat 10.6 cells was achieved |  |  |  |
| O=C(CCCCCCC(=O)Nc1ccccc1)NO [Vorinostat, vorinostat] |  |  |  |  |  | greater effect than treatment with any of the components alone | A (A 0-25%) |
